# According to patent US20040063662A1, “Selenophene anti-tumor agents” (priority 1996, published 2004):
# Tests used:
# CCRF-CEM = assay: NCI human tumor cell panel: CCRF-CEM (Leukemia); type: cell-based
# HL-60(TB) = assay: NCI human tumor cell panel: HL-60(TB) (Leukemia); type: cell-based
# RPMI-8226 = assay: NCI human tumor cell panel: RPMI-8226 (Leukemia); type: cell-based
# NCI-H226 = assay: NCI human tumor cell panel: NCI-H226 (Non-Small Cell Lung Cancer); type: cell-based
# NCI-H322M = assay: cells; type: cell-based; details: Homo sapiens
# COLO 205 = assay: NCI human tumor cell panel: COLO 205 (Colon Cancer); type: cell-based; details: COLO 205, read-out: Log10 GI50 (converted)
# HCC-2998 = assay: NCI human tumor cell panel: HCC-2998 (Colon Cancer); type: cell-based
# SF-268 = assay: NCI human tumor cell panel: SF-268 (CNS Cancer); type: cell-based
# SF-539 = assay: NCI human tumor cell panel: SF-539 (CNS Cancer); type: cell-based
# SNB-19 = assay: NCI human tumor cell panel: SNB-19 (CNS Cancer); type: cell-based
# U251 = assay: NCI human tumor cell panel: U251 (CNS Cancer); type: cell-based
# M14 = assay: NCI human tumor cell panel: M14 (Melanoma); type: cell-based
# SK-MEL-2 = assay: NCI human tumor cell panel: SK-MEL-2 (Melanoma); type: cell-based
# SK-MEL-28 = assay: NCI human tumor cell panel: SK-MEL-28 (Melanoma); type: cell-based
# SK-MEL-5 = assay: NCI human tumor cell panel: SK-MEL-5 (Melanoma); type: cell-based
# OVCAR-3 = assay: NCI human tumor cell panel: OVCAR-3 (Ovarian Cancer); type: cell-based
# SK-OV-3 = assay: NCI human tumor cell panel: SK-OV-3 (Ovarian Cancer); type: cell-based
# CAKI-1 = assay: NCI human tumor cell panel: CAKI-1 (Renal Cancer); type: cell-based
# RXF-393 = assay: NCI human tumor cell panel: RXF-393 (Renal Cancer); type: cell-based
# UO-31 = assay: NCI human tumor cell panel: UO-31 (Renal Cancer); type: cell-based
# DU-145 = assay: NCI human tumor cell panel: DU-145 (Prostate Cancer); type: cell-based
# MCF7 = assay: NCI human tumor cell panel: MCF7 (Breast Cancer); type: cell-based
# MDA-MB-231/ATCC = assay: NCI human tumor cell panel: MDA-MB-231/ATCC (Breast Cancer); type: cell-based; details: Homo sapiens, MDA-MB-231, MDA-MB-231/ATCC
# MDA-MB-435 = assay: NCI human tumor cell panel: MDA-MB-435 (Breast Cancer); type: cell-based
# MDA-N = assay: NCI human tumor cell panel: MDA-N (Breast Cancer); type: cell-based
# T-47D = assay: NCI human tumor cell panel: T-47D (Breast Cancer); type: cell-based; details: T47D
# NCI-H522 = assay: NCI human tumor cell panel: NCI-H522 (Non-Small Cell Lung Cancer)
# [1] = system: panel of sixty different human tumor cell lines; assay: NCI human tumor cell panel: whole panel (mean graph summary)
# [2] = read-out: Log10 GI50 (converted)
# [3] = read-out: Log10 TGI (converted)
smiles,measurement,setting,value
OCc1ccc(-c2ccc(-c3ccc[se]3)s2)[se]1 [compound 676631],GI50,CCRF-CEM; [2],> 100 µM
same,IC (TGI),CCRF-CEM; [3],> 100 µM
same,GI50,HL-60(TB); [2],> 100 µM
same,IC (TGI),HL-60(TB); read-out: Log10 TGI,> 100 µM
same,GI50,"RPMI-8226; RPMI-8226, read-out: Log10 GI50 (converted)",> 100 µM
same,IC (TGI),"RPMI-8226; RPMI-8226, read-out: Log10 TGI",> 100 µM
same,GI50,"NCI-H226; NCI-H226, read-out: Log10 GI50 (converted)",0.0501 µM
same,IC (TGI),"NCI-H226; NCI-H226, read-out: Log10 TGI (converted)",0.182 µM
same,GI50,NCI-H322M; [2],21.9 µM
same,IC (TGI),NCI-H322M; [3],> 100 µM
same,GI50,COLO 205,0.288 µM
same,GI50,"HCC-2998; HCC-2998, read-out: Log10 GI50 (converted)",42.7 µM
same,IC (TGI),"HCC-2998; HCC-2998, read-out: Log10 TGI (converted)",> 100 µM
same,GI50,"SF-268; SF-268, read-out: Log10 GI50 (converted)",23.4 µM
same,IC (TGI),"SF-268; SF-268, read-out: Log10 TGI (converted)",64.6 µM
same,GI50,"SF-539; SF-539, read-out: Log10 GI50 (converted)",12.3 µM
same,IC (TGI),"SF-539; SF-539, read-out: Log10 TGI (converted)",57.5 µM
same,GI50,"SNB-19; SNB-19, read-out: Log10 GI50 (converted)",17.4 µM
same,IC (TGI),"SNB-19; SNB-19, read-out: Log10 TGI (converted)",> 100 µM
same,GI50,"U251; U-251, U251, read-out: Log10 GI50 (converted)",0.0776 µM
same,IC (TGI),"U251; U-251, U251, read-out: Log10 TGI (converted)",20 µM
same,GI50,"M14; M14, read-out: Log10 GI50 (converted)",20 µM
same,IC (TGI),"M14; M14, read-out: Log10 TGI (converted)",> 100 µM
same,GI50,"SK-MEL-2; SK-MEL-2, read-out: Log10 GI50 (converted)",> 100 µM
same,IC (TGI),"SK-MEL-2; SK-MEL-2, read-out: Log10 TGI (converted)",> 100 µM
same,GI50,"SK-MEL-28; SK-MEL-28, read-out: Log10 GI50 (converted)",66.1 µM
same,IC (TGI),"SK-MEL-28; SK-MEL-28, read-out: Log10 TGI (converted)",> 100 µM
same,GI50,"SK-MEL-5; SK-MEL-5, read-out: Log10 GI50 (converted)",> 100 µM
same,IC (TGI),"SK-MEL-5; SK-MEL-5, read-out: Log10 TGI (converted)",> 100 µM
same,GI50,"OVCAR-3; OVCAR-3, read-out: Log10 GI50 (converted)",0.0275 µM
same,IC (TGI),"OVCAR-3; OVCAR-3, read-out: Log10 TGI (converted)",0.138 µM
same,GI50,"SK-OV-3; SK-OV-3, read-out: Log10 GI50 (converted)",45.7 µM
same,IC (TGI),"SK-OV-3; SK-OV-3, read-out: Log10 TGI (converted)",> 100 µM
same,GI50,"CAKI-1; CAKI-1, read-out: Log10 GI50 (converted)",0.0309 µM
same,IC (TGI),"CAKI-1; CAKI-1, read-out: Log10 TGI (converted)",0.191 µM
same,GI50,"RXF-393; RXF-393, read-out: Log10 GI50 (converted)",72.4 µM
same,IC (TGI),"RXF-393; RXF-393, read-out: Log10 TGI (converted)",> 100 µM
same,GI50,"UO-31; UO-31, read-out: Log10 GI50 (converted)",> 100 µM
same,IC (TGI),"UO-31; UO-31, read-out: Log10 TGI (converted)",> 100 µM
same,GI50,"DU-145; DU-145, read-out: Log10 GI50 (converted)",20 µM
same,IC (TGI),"DU-145; DU-145, read-out: Log10 TGI (converted)",77.6 µM
same,GI50,"MCF7; MCF7, read-out: Log10 GI50 (converted)",0.0933 µM
same,IC (TGI),"MCF7; MCF7, read-out: Log10 TGI (converted)",21.9 µM
same,GI50,MDA-MB-231/ATCC; [2],19.1 µM
same,IC (TGI),MDA-MB-231/ATCC; [3],87.1 µM
same,GI50,"MDA-MB-435; MDA-MB-435, read-out: Log10 GI50 (converted)",8.13 µM
same,IC (TGI),"MDA-MB-435; MDA-MB-435, read-out: Log10 TGI (converted)",55 µM
same,GI50,MDA-N; [2],16.6 µM
same,IC (TGI),MDA-N; [3],43.7 µM
same,GI50,T-47D; [2],0.676 µM
same,IC (TGI),T-47D; [3],> 100 µM
same,GI50,"NCI-H522; NCI-H522, read-out: Log10 GI50 (converted)",5.25 µM
same,IC (TGI),"NCI-H522; NCI-H522, read-out: Log10 TGI",21.4 µM
same,GI50,"[1]; Homo sapiens, read-out: Log10 GI50, MG_MID, mean over the panel (converted)",6.61 µM
same,"Log10 LC50, MG_MID",[1]; mean over the panel,−4.15
same,"Log10 TGI, MG_MID",[1]; mean over the panel,−4.47
same,"Log10 TGI, Delta",[1]; whole panel,2.61
same,"Log10 TGI, Range",[1]; whole panel,3.08
